Reference: publication PMC3836994, “Killer Bee Molecules: Antimicrobial Peptides as Effector Molecules to Target Sporogonic Stages of Plasmodium” (PLoS Pathogens, 2013)
Several values for one entry are separate records, joined by “and”; a condition that tells them apart may be missing. Equal values may be shown once. Entries after “also recorded” stand apart in the source; their conditions may differ.

Assays:
[1] = tested on: Anopheles gambiae Sua 4.0 cells; experiment: Sua 4.0 mosquito cell growth (cell counts); format: cell-based; conditions: 25 µM AMP; for Average number of cells over 3 replicates, peptide: seeded 30×10^4/ml, mean of 3 experiments
Procedure: (§1) To establish potential effects of AMPs on mosquito cells, the An. gambiae Sua 4.0 cell line was used. This facilitated an initial high-throughput screening and provided insights into AMP toxicity, mode of action (lytic or other) and speed of action. Sua 4.0 cells were maintained at 27°C in Schneider's insect medium supplemented with 10% FBS (foetal bovine serum) in T25 culture flasks (Fisher, UK).
(§2) Each AMP was tested separately to establish if it affected cell viability and growth. […] Cells were maintained for 3, 6, 24 or 48 h, after which they were resuspended and a sub-sample from duplicate wells counted using a haemocytometer. To establish cell viability after 48 h (whether simply arrested in development or non-viable), resuspended cells were added to an equal volume of 5% erythrosin B vital dye and viable cells excluding the stain were counted. The viability of 100 cells in triplicate wells was recorded. Each AMP assay was performed in triplicate and included a negative control minus the peptide (5 µl of water alone added to the medium) and a further control of 5 µl of 10% SDS (sodium dodecyl sulphate) substituted for the AMP as this causes 100% cell lysis.

[2] = tested on: Anopheles gambiae Sua 4.0 cells; experiment: Sua 4.0 mosquito cell viability (erythrosin B exclusion); format: cell-based; design: dose or concentration left out as unconfirmed; conditions: after 48 h culture
Procedure: as §1, §2

P. berghei ookinetes = experiment: P. berghei ookinete viability in vitro (erythrosin B); format: cell-based, Plasmodium berghei; conditions: 30 min; for Reduction in ookinete viability: versus control
Procedure: Our primary aim was to target parasites in mosquitoes before they cross the midgut wall, therefore AMPs were first assessed for their ability to kill ookinetes in vitro. […] Ookinete cultures of P. berghei were established from gametocytaemic blood as previously described. Parasites were enriched using cold 0.17M ammonium chloride after 18 h of culture and washed thoroughly with PBS (phosphate buffered saline). Parasites were seeded in triplicate wells of a 96-well microtitre plate at a density of 1×10^5/ml in a volume of 47.5 µl Schneider's insect medium (Invitrogen) with 2.5 µl of the test AMP (final concentration of 50 µM). Ookinetes were incubated for 30 min in conjunction with triplicate control wells containing medium with 2.5 µl of water instead of AMP. A sub-sample of parasites was then added to an equal volume of 5% erythrosin B to assess viability (150 ookinetes in total, taken from 3 wells). Each of the 33 AMPs was screened in this way and assays were performed 3 times. AMPs displaying a high degree of toxicity (>90% of ookinetes displaying erythrosin B staining) underwent further ookinete assays using a concentration of 100 µM AMP. To assess synergistic effects, combinations of two peptides were also tested at a concentration of 25 µM per AMP, in the assay described above.

P. falciparum [3] = conditions: added to blood meals at 30 µM; ref [35]; cited from earlier work
Procedure: Some candidate AMPs were additionally investigated using P. falciparum and An. gambiae. TP10 dimer and Melittin lowered both prevalence and intensity of P. falciparum infections produced from laboratory cultures. It has already been reported that the monomer of TP10, added to blood meals at 30 µM, reduced parasite prevalence by 35–45% [35].

[4] = tested on: An. gambiae (Mali strain); experiment: Mosquito longevity after blood feeds containing AMP; format: in vivo, Anopheles gambiae; conditions: for Significance of effect on longevity over 10 days: 50 µM AMP, Kaplan-Meier, Wilcoxon, peptide vs control; for Percent alive, peptide: over 10 days, 50 µM AMP in human blood, feeds on days 0 and 7, 3 or 4 replicates
Procedure: (§3) Female An. gambiae (Mali strain, 3–5 days old) were used to establish the effects of AMPs on mosquito longevity and fecundity in the absence of confounding factors introduced with parasite infection. Two hundred 3–6 day old females were fed on human O+ whole blood supplemented with 50 µM AMP (or water control, 1 ml total volume) via feeding chambers of a Hemotek membrane feeding system. Fully engorged mosquitoes were randomly moved into four separate cages, each containing 25 mosquitoes, to facilitate monitoring. Mortality rates were recorded daily for a 10-day period, and oviposition sites were provided on the second and third night post-feeding. A second blood feed containing the same AMP was administered 7 days later to mimic the likelihood that mosquitoes would feed at least twice in the field during the development of sporogonic stages of the malaria parasite. Oviposition sites were again provided to assess fecundity through the number of eggs laid as an average per surviving mosquito. Assays for each AMP were repeated in triplicate on separate generations of mosquitoes. Due to egg retention under experimental conditions, egg production is best measured by dissecting mosquitoes that have not been provided with an oviposition site. However, this is not a feasible method of determining fecundity when longevity is also being measured.

[5] = tested on: An. gambiae (Mali strain); experiment: Mosquito oviposition after blood feed containing AMP; format: in vivo, Anopheles gambiae; conditions: for Significance of effect on oviposition: 50 µM AMP, one-way ANOVA, peptide vs control; for Mean no. of eggs laid per mosquito, peptide: after first feed with 50 µM AMP, eggs laid over two nights, averaged per surviving mosquito, 3 or 4 replicates
Procedure: as §3

P. falciparum [6] = experiment: Cultured P. falciparum gametocytes membrane-fed to An. gambiae (oocyst prevalence and intensity); format: in vivo, Plasmodium falciparum; conditions: 50 µM; for Oocyst intensity (mean number of oocysts per gut, range in parentheses), peptide / Oocyst prevalence (oocyst positive mosquitoes), peptide: cultured gametocytes, An. gambiae
Procedure: P. falciparum NF54 gametocytes were produced through large-scale automated culture at the Pasteur Institute, Paris, [69]. Gametocytes were grown in 10 ml RPMI 1640 medium (Invitrogen), supplemented with 25 mM HEPES and L-glutamine, 10% heat-inactivated human serum and hypoxanthine (20 mg/L) under a constant gas supply (5% CO2, 1% O2, 94% N2). Fresh red blood cells (RBCs) were added to obtain a 7% haematocrit. Fourteen days after initiating the culture, gametocyte maturity was assessed on thin Giemsa-stained blood smears, and male gametocyte maturity verified by exflagellation tests. Gametocyte cultures were centrifuged for 5 min at 1500 rpm and the ∼500–600 µl pellet resuspended in fresh RBCs and AB human serum to give a final haematocrit of 40%.
Blood containing mature gametocytes (475 µl) was added to 25 µl of the test AMP (50 µM final concentration). Peptides were replaced by 25 µl of sterile deionized water for each control. The blood/parasite/peptide mixture was placed in a Hemotek membrane feeder, previously warmed to 37°C. For each feed, 70 to 100 nulliparous female An. gambiae mosquitoes were left to feed in the dark for 15 min and only fully engorged females were transferred to small cages and provided with 10% sucrose containing 0.05% PABA. After 8 days, 30 midguts were dissected and stained with bromo fluorescein for the detection of oocysts.

P. falciparum [7] = experiment: Field P. falciparum from gametocyte carriers membrane-fed to An. gambiae (Mali); format: in vivo, Plasmodium falciparum; conditions: Replicate 1, 50 µM
Excerpt: Nyaganabougou, a village approximately 60 km south-west of the Malian capital, Bamako, was used as a site for the source of donors of malaria-infected blood. Due to its proximity to the river Niger, which provides perennial mosquito breeding sites, Nyaganabougou has high numbers of infected individuals and an extended transmission season. Mosquitoes used to establish the An. gambiae Mali colony used for this study were originally collected in the village of Kenieroba (a distance of 15 km from Nyaganabougou). Potential male and female gametocyte carriers between the ages of 6–10 were screened by thick smear and parasite species and density determined by local staff, led by Saibou Doumbia.
Gametocyte carriers were taken to the Malaria Research and Training Centre at the University of Bamako for blood donation. Approximately 4 ml of blood was extracted from carriers and immediately divided into 3 Hemotek membrane feeders for testing 2 separate AMPs and one control for each carrier. Peptides were added to 950 µl of gametocytaemic blood for a final concentration of 50 µM. All parasite-positive individuals were subsequently treated appropriately for parasites and associated symptoms, as determined by, and carried out by, local health workers in Nyaganabougou.
Approximately 120 adult female An. gambiae (Mali, 4–7 days old) were starved overnight, and allowed to feed on the gametocytaemic blood/AMP mix for 30 min. Engorged females were maintained on 10% glucose with 0.05% PABA for 8 days before dissection. No oviposition sites were provided so that fecundity could be measured by determining retained eggs. Mosquito wing length, numbers of retained eggs and oocysts were recorded, and triplicate peptide experiments were carried out on different mosquito cohorts, using blood from different donors. Where possible, a minimum of 50 mosquitoes were dissected for each condition.

[8] = tested on: An. gambiae (Mali strain); experiment: Mosquito longevity after blood feeds containing AMP; format: in vivo, Anopheles gambiae; conditions: 50 µM AMP in blood on days 0 and 7; extended to 30 days
P. berghei = P. berghei infections in Anopheles stephensi (oocyst prevalence and intensity); format: in vivo, Plasmodium berghei; conditions: for Prevalence (proportion of infected mosquitoes), peptide: 50 µM peptide in gametocytaemic mouse blood fed to An. stephensi; for Intensity (mean number of oocysts, range in parentheses), peptide: 50 µM peptide, An. stephensi
Procedure: To assess the effects of AMPs on parasites in vivo, mouse blood containing P. berghei gametocytes was obtained by cardiac puncture and 475 µl was rapidly mixed with 25 µl (50 µM final concentration) of AMP. This mixture was fed to 100 nulliparous 3–5 day old female An. stephensi. A further 475 µl of blood from the same infection was mixed with 25 µl of distilled water to act as a control. Mosquitoes were maintained at 19°C for optimum parasite development. Between 30 and 50 mosquitoes were dissected after 10 days. Mosquito wing length, numbers of retained eggs and oocysts were recorded in triplicate experiments carried out on different mosquito cohorts.

[9] = 3 hrs in culture, haemocytometer count of duplicate wells
[10] = 50 µM of single peptide, n = 150 ookinetes per treatment per replicate
[11] = Replicate 1, dissected after 8 days
[12] = over the three replicates, 50 µM

Compound | Reduction in cell number (compared to control) ([1]; 3 hrs in culture) [%] | Average number of cells over 3 replicates, peptide [1, 9] [mL⁻¹] | Reduction in cell number (compared to control) ([1]; 24 hrs in culture) [%] | Average number of cells over 3 replicates, peptide ([1]; 24 hrs in culture) | Reduction in cell number (compared to control) ([1]; 48 hrs in culture) [%] | Average number of cells over 3 replicates, peptide ([1]; 48 hrs in culture) [mL⁻¹] | Average ookinete viability (3 reps), peptide (P. berghei ookinetes; [10]) [%] | Reduction in ookinete viability (P. berghei ookinetes; 50 µM of single peptide) [%] | Significance of effect on longevity over 10 days [4] | Percent alive, peptide [4] [%] | Significance of effect on oviposition [5] | Mean no. of eggs laid per mosquito, peptide [5] | Oocyst intensity (mean number of oocysts per gut, range in parentheses), peptide (P. falciparum [6]; Replicate 1) | Oocyst prevalence (oocyst positive mosquitoes), peptide (P. falciparum [6]; [11]) | Oocyst intensity (mean number of oocysts per gut, range in parentheses), peptide (P. falciparum [6]; Replicate 2) | Oocyst prevalence (oocyst positive mosquitoes), peptide (P. falciparum [6]; Replicate 2) | Oocyst intensity (mean number of oocysts per gut, range in parentheses), peptide (P. falciparum [6]; Replicate 3) | Oocyst prevalence (oocyst positive mosquitoes), peptide (P. falciparum [6]; Replicate 3) | further results
CC[C@H](C)[C@H](NC(=O)[C@H](CCCCN)NC(=O)[C@H](CCCCN)NC(=O)[C@H](C)NC(=O)[C@H](CC(C)C)NC(=O)[C@H](C)NC(=O)[C@H](C)NC(=O)[C@H](CC(C)C)NC(=O)[C@H](C)NC(=O)[C@H](CCCCN)NC(=O)[C@H](CC(C)C)NC(=O)[C@H](CC(N)=O)NC(=O)[C@@H](NC(=O)[C@H](CCCCN)NC(=O)CNC(=O)[C@H](CC(C)C)NC(=O)[C@H](CC(C)C)NC(=O)[C@H](Cc1ccc(O)cc1)NC(=O)CNC(=O)[C@H](C)N)[C@@H](C)CC)C(=O)N[C@@H](CC(C)C)C(=O)O [TP10] | 31 | 220000 | 23 | 400000 mL⁻¹ | 3 | 780000 | 26 | 71 |  |  |  |  |  |  |  |  |  |  | Reduction in cell viability ([2]; versus control): 3%; Reduction of parasite prevalence (P. falciparum [3]): 35–45%
Mastoparan X |  |  |  |  |  |  | 41 | 57 | N/S | 84 | N/S | 44 | 2 (0–11) | 47% (30) | 2 (0–29) | 40% (30) | 11 (0–72) | 60% (30) | Average ookinete viability (3 reps), peptide (P. berghei ookinetes; 100 µM of single peptide): 4%; Reduction in ookinete viability (P. berghei ookinetes; 100 µM of single peptide): 96%; Oocyst prevalence (oocyst positive mosquitoes), peptide (P. falciparum [7]; blood of gametocyte carriers, progeny of field An. gambiae): 45% (40); Oocyst intensity (mean number of oocysts per gut, range in parentheses), peptide (P. falciparum [7]; field parasites and mosquitoes): 3 (0–21); Effect on longevity over 30 days (in words) [8]: no significant long-term effects on longevity
Melittin | 84 | 50000 | 100 | no cells remaining and 0 ×10^4/ml | 100 | 0 | 0 | 100 | N/S | 84 | N/S | 41 | 0 | 0% (30) | <1 (0–1) | 17% (30) | 6 (0–74) | 37% (30) | Average viability of cells (3 replicates), peptide ([2]; erythrosin B exclusion, 100 cells in triplicate wells): no intact cells remained; also recorded: No remaining cells; Prevalence (proportion of infected mosquitoes), peptide (P. berghei; Replicate 1): 98% (50); Intensity (mean number of oocysts, range in parentheses), peptide (P. berghei; Replicate 1): 50 (0–192); Prevalence (proportion of infected mosquitoes), peptide (P. berghei; Replicate 2): 82% (49); Intensity (mean number of oocysts, range in parentheses), peptide (P. berghei; Replicate 2): 28 (0–160); Prevalence (proportion of infected mosquitoes), peptide (P. berghei; Replicate 3): 72% (50); Intensity (mean number of oocysts, range in parentheses), peptide (P. berghei; Replicate 3): 31 (0–412); Average reduction of parasite prevalence (P. berghei; [12]): 10%; Mean oocysts per midgut (P. berghei; [12]): 37 oocysts per midgut; Reduction of infection intensity (P. berghei; over the three replicates, 50 µM, control mean 114 oocysts): 68%; Average reduction of intensity of infection (P. falciparum [6]; over three replicates): 57%; Average reduction of prevalence (P. falciparum [6]; over three replicates): 60%
